Tested on: PRISM DNA-barcoded human tumour cell lines
Assay: PRISM pooled cell viability assay;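 for PRISM AUC: 8 threefold dilutions from 10 µM with 5 days of exposure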
Format: cell-based
Design: AUC (PRISM viability) / AUC (PRISM): unit not given beside the values
Conditions: for AUC (PRISM viability): WT; for PRISM AUC: KRAS MUT
Description: Cells were then lysed in TCL mRNA lysis buffer, and then PCR with reverse transcription was performed. Detection of the barcodes and univariate and multivariate analysis was then performed as previously described. Data analysis is described in the Supplementary Methods. Up-to-date code for our analysis is at the github link: https://github.com/cmap/dockerized_mts.
For every gene with non-silent mutations in at least four cell-lines, we compared the AUC values between cells with and without those mutations using a t-test. This analysis was carried out for: (i) the full dataset; (ii) excluding cell lines with non-silent KRAS mutations; and (iii) excluding cell lines that have either KRAS or NRAS non-silent mutations.

## CCn1c(-c2cc(N3CCN(C4CC4)CC3)cnc2[C@H](C)OC)c2c3cc(ccc31)-c1csc(n1)C[C@H](NC(=O)[C@H]1[C@@H]3COC[C@@H]31)C(=O)N1CCC[C@H](N1)C(=O)OCC(C)(C)C2 [RMC-7977]
MPP89_PLEURA
  AUC (PRISM viability): 0.9969
MSTO211H_PLEURA
  AUC (PRISM viability): 0.3796
NALM6_HAEMATOPOIETIC_AND_LYMPHOID_TISSUE
  AUC (PRISM viability): 0.7052
NB1_AUTONOMIC_GANGLIA
  AUC (PRISM viability): 0.4921
NCIH23_LUNG
  PRISM AUC: 0.451
NCIH28_PLEURA
  AUC (PRISM viability): 0.6741
NCIH82_LUNG
  AUC (PRISM viability): 0.581
NCIH196_LUNG
  AUC (PRISM viability): 0.9033
NCIH226_LUNG
  AUC (PRISM viability): 0.6197
NCIH292_LUNG
  AUC (PRISM viability): 0.4596
NCIH322_LUNG
  AUC (PRISM viability): 0.4865
NCIH358_LUNG
  PRISM AUC: 0.1803
NCIH441_LUNG
  PRISM AUC: 0.3007
NCIH446_LUNG
  AUC (PRISM viability): 0.8555
NCIH508_LARGE_INTESTINE
  AUC (PRISM viability): 0.3599
NCIH520_LUNG
  AUC (PRISM viability): 0.7662
NCIH522_LUNG
  AUC (PRISM viability): 0.759
NCIH524_LUNG
  AUC (PRISM viability): 0.7662
NCIH596_LUNG
  AUC (PRISM viability): 0.5305
NCIH647_LUNG
  PRISM AUC: 0.7239
NCIH661_LUNG
  AUC (PRISM viability): 0.7122
NCIH727_LUNG
  PRISM AUC: 0.5024
NCIH747_LARGE_INTESTINE
  PRISM AUC: 0.2108
NCIH838_LUNG
  AUC (PRISM viability): 0.8166
NCIH841_LUNG
  AUC (PRISM viability): 0.7846
NCIH1048_LUNG
  AUC (PRISM viability): 0.6373
NCIH1092_LUNG
  AUC (PRISM viability): 0.3222
NCIH1299_LUNG
  AUC (PRISM viability): 0.4354
NCIH1339_LUNG
  PRISM AUC: 0.4553
NCIH1341_LUNG
  AUC (PRISM viability): 0.5477
NCIH1355_LUNG
  PRISM AUC: 0.4521
NCIH1373_LUNG
  PRISM AUC: 0.3791
NCIH1435_LUNG
  AUC (PRISM viability): 0.8637
NCIH1437_LUNG
  AUC (PRISM viability): 0.5969
NCIH1563_LUNG
  AUC (PRISM viability): 0.6189
NCIH1568_LUNG
  AUC (PRISM viability): 0.6734
NCIH1581_LUNG
  AUC (PRISM viability): 0.9998
NCIH1648_LUNG
  AUC (PRISM viability): 0.2199
NCIH1650_LUNG
  AUC (PRISM viability): 0.6245
NCIH1651_LUNG
  AUC (PRISM viability): 0.8871
NCIH1693_LUNG
  AUC (PRISM viability): 0.8183
NCIH1694_LUNG
  AUC (PRISM viability): 0.5791
NCIH1703_LUNG
  AUC (PRISM viability): 0.6825
NCIH1792_LUNG
  PRISM AUC: 0.2139
NCIH1793_LUNG
  AUC (PRISM viability): 0.6312
NCIH1838_LUNG
  AUC (PRISM viability): 0.5855
NCIH1915_LUNG
  AUC (PRISM viability): 0.641
NCIH1944_LUNG
  PRISM AUC: 0.5331
NCIH1975_LUNG
  AUC (PRISM viability): 0.5382
NCIH2023_LUNG
  AUC (PRISM viability): 0.5354
NCIH2087_LUNG
  AUC (PRISM viability): 0.3287
NCIH2110_LUNG
  AUC (PRISM viability): 0.5875
NCIH2122_LUNG
  PRISM AUC: 0.1883
NCIH2126_LUNG
  AUC (PRISM viability): 0.6292
NCIH2170_LUNG
  AUC (PRISM viability): 0.6244
NCIH2171_LUNG
  AUC (PRISM viability): 0.8542
NCIH2172_LUNG
  AUC (PRISM viability): 0.765
NCIH2228_LUNG
  AUC (PRISM viability): 0.4232
NCIH2444_LUNG
  PRISM AUC: 0.2818
NCIH2452_PLEURA
  AUC (PRISM viability): 1
NCIN87_STOMACH
  AUC (PRISM viability): 0.7465
NCO2_HAEMATOPOIETIC_AND_LYMPHOID_TISSUE
  AUC (PRISM viability): 0.625
NIHOVCAR3_OVARY
  AUC (PRISM viability): 0.7506
NOMO1_HAEMATOPOIETIC_AND_LYMPHOID_TISSUE
  PRISM AUC: 0.4639
NUGC3_STOMACH
  AUC (PRISM viability): 0.3156
NUGC4_STOMACH
  AUC (PRISM viability): 0.304
OAW42_OVARY
  AUC (PRISM viability): 0.7122
OC314_OVARY
  AUC (PRISM viability): 0.7084
OC316_OVARY
  AUC (PRISM viability): 0.6527
OCIAML2_HAEMATOPOIETIC_AND_LYMPHOID_TISSUE
  AUC (PRISM viability): 0.8145
OCIAML3_HAEMATOPOIETIC_AND_LYMPHOID_TISSUE
  AUC (PRISM viability): 0.162
OCILY3_HAEMATOPOIETIC_AND_LYMPHOID_TISSUE
  AUC (PRISM viability): 0.7702
OCIM1_HAEMATOPOIETIC_AND_LYMPHOID_TISSUE
  AUC (PRISM viability): 0.5554
OE19_OESOPHAGUS
  AUC (PRISM viability): 0.4503
OE21_OESOPHAGUS
  AUC (PRISM viability): 0.4077
OE33_OESOPHAGUS
  AUC (PRISM viability): 0.4516
ONCODG1_OVARY
  AUC (PRISM viability): 0.8342
ONS76_CENTRAL_NERVOUS_SYSTEM
  AUC (PRISM viability): 0.1792
OSRC2_KIDNEY
  AUC (PRISM viability): 0.7371
OUMS23_LARGE_INTESTINE
  AUC (PRISM viability): 0.9107
OV7_OVARY
  PRISM AUC: 0.3327
OV56_OVARY
  PRISM AUC: 0.6812
OVISE_OVARY
  AUC (PRISM viability): 0.7216
OVKATE_OVARY
  AUC (PRISM viability): 0.7188
OVTOKO_OVARY
  AUC (PRISM viability): 0.7297
P12ICHIKAWA_HAEMATOPOIETIC_AND_LYMPHOID_TISSUE
  AUC (PRISM viability): 0.1917
PANC1_PANCREAS
  PRISM AUC: 0.7301
PANC0203_PANCREAS
  PRISM AUC: 0.1549
PANC0327_PANCREAS
  PRISM AUC: 0.3885
PANC0403_PANCREAS
  PRISM AUC: 0.1969
PANC0504_PANCREAS
  PRISM AUC: 0.2677
PANC0813_PANCREAS
  PRISM AUC: 0.6012
PANC1005_PANCREAS
  PRISM AUC: 0.492
PATU8902_PANCREAS
  PRISM AUC: 0.2883
PATU8988S_PANCREAS
  PRISM AUC: 0.2608
PATU8988T_PANCREAS
  PRISM AUC: 0.5033
PC3_PROSTATE
  AUC (PRISM viability): 0.7599
PC14_LUNG
  AUC (PRISM viability): 0.4618
PECAPJ15_UPPER_AERODIGESTIVE_TRACT
  AUC (PRISM viability): 0.4843
PECAPJ41CLONED2_UPPER_AERODIGESTIVE_TRACT
  AUC (PRISM viability): 0.3318
PECAPJ49_UPPER_AERODIGESTIVE_TRACT
  AUC (PRISM viability): 0.2883
PF382_HAEMATOPOIETIC_AND_LYMPHOID_TISSUE
  AUC (PRISM viability): 0.3397
PK1_PANCREAS
  PRISM AUC: 0.3834
PK45H_PANCREAS
  PRISM AUC: 0.5023
PK59_PANCREAS
  PRISM AUC: 0.2749
PLCPRF5_LIVER
  AUC (PRISM viability): 0.7216
PSN1_PANCREAS
  PRISM AUC: 0.12
QGP1_PANCREAS
  PRISM AUC: 0.3907
RCC10RGB_KIDNEY
  AUC (PRISM viability): 0.7484
RCM1_LARGE_INTESTINE
  PRISM AUC: 0.1259
RDES_BONE
  AUC (PRISM viability): 0.7616
RD_SOFT_TISSUE
  AUC (PRISM viability): 0.207
RERFGC1B_STOMACH
  AUC (PRISM viability): 0.5427
RERFLCAD2_LUNG
  PRISM AUC: 0.4067
RERFLCAI_LUNG
  AUC (PRISM viability): 0.6094
RERFLCKJ_LUNG
  AUC (PRISM viability): 0.8949
RERFLCMS_LUNG
  AUC (PRISM viability): 0.7953
RH30_SOFT_TISSUE
  AUC (PRISM viability): 0.6971
RI1_HAEMATOPOIETIC_AND_LYMPHOID_TISSUE
  AUC (PRISM viability): 0.7681
RKN_SOFT_TISSUE
  PRISM AUC: 0.1266
RKO_LARGE_INTESTINE
  AUC (PRISM viability): 0.9515
RL952_ENDOMETRIUM
  AUC (PRISM viability): 0.342
RL_HAEMATOPOIETIC_AND_LYMPHOID_TISSUE
  AUC (PRISM viability): 0.7851
RMGI_OVARY
  AUC (PRISM viability): 0.5297
RMUGS_OVARY
  AUC (PRISM viability): 0.8312
RPMI7951_SKIN
  AUC (PRISM viability): 0.9756
RPMI8402_HAEMATOPOIETIC_AND_LYMPHOID_TISSUE
  AUC (PRISM viability): 0.7828
RT4_URINARY_TRACT
  AUC (PRISM viability): 0.5133
RT112_URINARY_TRACT
  AUC (PRISM viability): 0.1516
RVH421_SKIN
  AUC (PRISM viability): 0.8566
SBC5_LUNG
  AUC (PRISM viability): 0.6474
SCABER_URINARY_TRACT
  AUC (PRISM viability): 0.3752
SCC9_UPPER_AERODIGESTIVE_TRACT
  AUC (PRISM viability): 0.5257

— publication PMC11111408, “Concurrent inhibition of oncogenic and wild-type RAS-GTP for cancer therapy” (Nature, 2024)
